# PubChem BioAssay (NCI)
# Values joined by “and” are separate entries in the source; they are usually repeats but may differ in a detail not shown here. Equal values may be shown once.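 Briefly, cells in 96-well plates were exposed to five compound concentrations for 48 h, and endpoints were estimated by linear interpolation. Here, GI50 denotes the concentration required for 50% inhibition of growth. TGI: total growth inhibition.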
# Key:
# Assay in all cases: NCI anticancer screen, dose series, 48 h
# [1] = tested on: HCT-15 colon
# [2] = tested on: K-562 leukemia
# [3] = tested on: SK-OV-3 ovarian
# [4] = tested on: T-47D breast
# [5] = tested on: SN12C renal
# [6] = tested on: COLO 205 colon
# [7] = tested on: MDA-MB-231 breast
# [8] = tested on: HCC-2998 colon
# [9] = tested on: NCI/ADR-RES ovarian
# [10] = tested on: SF-295 CNS
Structure (SMILES),GI50 [1] [µM],TGI [1],GI50 [2] [µM],TGI [2] [µM],GI50 [3] [µM],TGI [3] [µM],GI50 [4] [µM],TGI [4] [µM],GI50 [5] [µM],TGI [5],GI50 [6] [µM],TGI [6],GI50 [7] [µM],TGI [7] [µM],GI50 [8] [µM],TGI [8],GI50 [9] [µM],TGI [9] [µM],GI50 [10] [µM],TGI [10]
Cn1cc(C2=C(c3c4n(c5ccccc35)CC(CN)C4)C(=O)NC2=O)c2ccccc21 (stereo not given),4.33,15.8 µM,1.64,17.9,1.93,14.7,5.26,13.5,3.4,11 µM,2.59,6.05 µM,3.78,9.76,4.01,8.02 µM,10.1,25,3.54,8.56 µM
C=C1C(=O)O[C@H]2[C@H]1CC/C(COC(=O)/C=C\C(=O)NCc1ccc(Cn3c(=O)sn(-c4ccc(OC)cc4)c3=O)cc1)=C\CC[C@@]1(C)O[C@@H]21,0.443,1.56 µM,0.603,50,4.77,11.6,0.839,2.02,0.636,1.46 µM,0.633,2.02 µM,0.701,1.7,0.881,1.67 µM,1.11,4.32,3.84,10.1 µM
CCCn1cc(C2=C(c3cn(C)c4ccccc34)C(=O)NC2=O)c2ccccc21,0.688,> 19.2 µM,0.392,> 25,1.22,> 19,0.897,7.62,2.43,6.47 µM,0.889,> 7.08 µM,3.91,16.9,4.85,> 25 µM,1.32,24.5,0.715,3.15 µM
CN(C)c1ccc(/C=C(\C#N)c2cc3ccccc3n2C)cc1,0.0687,> 100 µM,0.0407,> 100,0.532,> 100,0.204,> 100,0.482,> 100 µM,0.258,1.72 µM,0.509,> 100,0.293,> 43.8 µM,0.0895,> 100,0.0787,–
CSC(=S)N/N=C/c1ccccc1,–,> 100 µM,–,> 100,–,> 100,–,72.1,–,> 100 µM,–,> 100 µM,–,> 100,–,> 100 µM,–,> 100,–,> 100 µM
CCOc1cc(C=O)c2c(ccc3ccc(OC)c(OC)c32)c1OC,–,> 100 µM,–,> 100,–,> 100,–,> 100,–,> 100 µM,–,> 100 µM,–,> 100,–,> 100 µM,–,81.5,–,> 100 µM
O=C(Nc1ncc(Cc2ccccc2)s1)c1ccc2c(c1)OCCO2,0.0385,> 100 µM,0.0383,> 100,0.0681,26.9,0.0523,> 100,0.0748,> 100 µM,0.0354,1.08 µM,0.0669,4.03,0.0729,1.63 µM,0.0395,> 100,0.0304,1.49 µM
C#CC[C@@H]1C[C@]2(C)[C@H]3CC[C@@H]4[C@H]5[C@H](C(=C)C)CC[C@]5(C(=O)O)CC[C@@]4(C)[C@]3(C)CC[C@H]2C(C)(C)[C@H]1O,1.89,6.61 µM,2.32,20.9,2.39,5.25,1.79,4.66,2.98,11.6 µM,2.09,4.68 µM,2.32,6.11,4.44,38.5 µM,2.03,5.24,1.45,3.17 µM
Fc1ccc(CNc2c3ccccc3nc3ccccc23)cc1,1.98,5.31 µM,2.49,16.2,2.56,10.1,2.53,10,2.64,10.5 µM,1.66,3.7 µM,1.9,5.58,1.95,4.62 µM,2.33,8.07,2.9,11.1 µM
NC(=O)c1nnn(Cc2cc(Cl)c(C(=O)c3ccc(Cl)cc3)c(Cl)c2)c1N,> 9.09,> 9.09 µM and 39.7 µM,2.19,> 70.2,> 9.09,> 52.9,–,> 51.6,> 9.09,> 9.09 µM and 46.8 µM,> 9.09,> 9.09 µM and 48 µM,–,> 52.8,6.15,> 9.09 µM and 17.9 µM,–,> 66.4,–,> 9.09 µM and 34 µM
O=C1Nc2ccccc2C1(c1ccc(O)c(F)c1)c1ccc(O)c(F)c1,8.34,34.4 µM,11.6,> 100,21.1,52,0.226,0.622,0.353,12.2 µM,0.297,1.98 µM,13.4,35.5,4.72,25.3 µM,0.389,> 100,12.5,28.5 µM
CC(=O)Oc1ccc2ccc(=O)oc2c1OC(C)=O,–,> 100 µM,–,> 100,–,> 100,–,> 100,–,> 100 µM,–,63.1 µM,–,> 100,–,> 100 µM,–,> 100,–,> 100 µM
C[N+](C)(C)CCC(=O)N1C/C(=C\c2ccccc2)C(=O)/C(=C/c2ccccc2)C1,–,6.49 µM,–,6.3,–,46.8,–,4.41,–,4.59 µM,–,13.4 µM,–,9.82,–,13.2 µM,–,3.3,–,11.9 µM
COc1ccc(/C=C2\N=C(c3ccccc3)N(c3cc(C(F)(F)F)ccc3Cl)C2=O)cc1OC,40.7,> 100 µM,31.2,87.6,> 100,> 100,> 100,> 100,65.7,> 100 µM,74,> 100 µM,87,> 100,65,> 100 µM,55.6,> 100,95,> 100 µM
